The record followed here is ChEMBL document CHEMBL1154917, “Flavanone and diphenylpropane glycosides and glycosidic acyl esters from Viscum articulatum” (J Nat Prod, 2010).

pIC50: −log10 of the molar value.

In data set [1] the test system is Radical scavenging activity. In words: Antioxidant activity assessed as DPPH radical scavenging activity after 30 mins. It counts as functional. For orientation: The DPPH test is a chemical assay of radical scavenging.
Data set [2] is described as follows: Cytotoxicity against mouse RAW264.7 cells assessed as cell viability at 1 to 20 uM after 24 hrs by MTT assay relative to control. The conditions noted are these: read-out: Activity. It counts as cell-based. A general note: Tetrazolium assays rely on reduction of a dye to a coloured formazan, in cell work by metabolically active cells.
In the next data set the test system is RAW264.7. The data set is described as follows: Antiinflammatory activity against mouse RAW264.7 cells assessed as Inhibition of LPS-induced nitric oxide production after 24 hrs by ELISA. Type of data set: functional, cell-based. The conditions noted are these: RAW264.7, 24 h.

By pIC50 is commonly meant −log10 of the IC50, conventionally taken in molar units. In the case of `O=C1C[C@@H](c2ccc(O)c(O)c2)Oc2cc(O[C@@H]3O[C@H](CO)[C@@H](O)[C@H](O)[C@H]3O)cc(O)c21`, the ED50 in data set [1] was determined as 63.3 µM. The viability at 24 h, up to 20 µM in data set [2] is 100%. Further, the pIC50 in the data set with RAW264.7 is 4.39.
For `COc1cc([C@@H]2CC(=O)c3c(O)cc(O[C@@H]4O[C@H](CO)[C@@H](O)[C@H](O)[C@H]4O)cc3O2)ccc1O`, in data set [1], the ED50 worked out at 100 µM. The viability at 24 h, up to 20 µM in data set [2] stood at 88.7%. Moreover, the pIC50 with RAW264.7 is 4.63.
`COc1ccc(/C=C/CO[C@@H]2O[C@H](CO)[C@@H](O)[C@H](O[C@@H]3OC[C@](O)(COC(=O)/C=C/c4ccccc4)[C@H]3O)[C@H]2O)cc1O` [VISARTISIDE F]: the ED50 in data set [1] is over 100 µM. Besides, the viability at 24 h, up to 20 µM in data set [2] was found to be 85.2%. Moreover, the pIC50 in the data set with RAW264.7 is 4.56.
In the case of `O=C(/C=C/c1ccccc1)O[C@H]1[C@H](Oc2cc(O)c3c(c2)O[C@H](c2ccc(O)c(O)c2)CC3=O)O[C@H](CO)[C@@H](O)[C@@H]1O` [VISARTISIDE A], the ED50 in data set [1] is 37.6 µM. Also, in data set [2], the viability at 24 h, up to 20 µM is 100%. In the data set with RAW264.7, the pIC50 was 4.81.
Turning to `O=C(/C=C/c1ccccc1)OC[C@@]1(O)CO[C@@H](O[C@H]2[C@H](Oc3cc(O)c4c(c3)O[C@H](c3ccc(O)c(O)c3)CC4=O)O[C@H](CO)[C@@H](O)[C@@H]2O)[C@@H]1O` [VISARTISIDE C], the ED50 in data set [1] is over 100 µM. In data set [2], the viability at 24 h, up to 20 µM worked out at 99.7%. For the same molecule, the pIC50 in the data set with RAW264.7 was 4.83.
In the same order, the values of `O=C1C[C@@H](c2ccccc2)Oc2cc(O[C@@H]3O[C@H](CO)[C@@H](O)[C@H](O)[C@H]3O)cc(O)c21` are over 100 µM, 74.5% and 4.72.
Consider `Cc1c(C)c2c(c(C)c1O)CC[C@@](C)(CCC[C@H](C)CCC[C@H](C)CCCC(C)C)O2`, for which the ED50 in data set [1] was 28.4 µM.
Consider `COc1cc(CCCc2c(OC)cc(O)c(OC)c2OC)ccc1O[C@@H]1O[C@H](CO)[C@@H](O)[C@H](O)[C@H]1O`, for which the ED50 in data set [1] is over 100 µM. Moreover, the viability at 24 h, up to 20 µM in data set [2] is 77%. In addition, in the data set on RAW264.7, the pIC50 is 4.52.
For the molecule `O=c1c(O)c(-c2ccc(O)c(O)c2)oc2cc(O)cc(O)c12` [QUERCETIN], the viability at 24 h, up to 20 µM in data set [2] amounted to 100%. Moreover, the pIC50 in the data set with RAW264.7 is 4.49.
For `O=C(/C=C/c1ccccc1)OC[C@@]1(O)CO[C@@H](O[C@@H]2[C@@H](O)[C@@H](O)O[C@H](CO)[C@H]2O)[C@@H]1O` [VISARTISIDE D], in data set [1], the ED50 is over 100 µM. In data set [2], the viability at 24 h, up to 20 µM is 80.2%. In the data set with RAW264.7, the negative logarithm of the IC50 (pIC50) is 4.49.
As to `O=C(/C=C/c1ccccc1)OC[C@H]1O[C@@H](Oc2cc(O)c3c(c2)O[C@H](c2ccc(O)c(O)c2)CC3=O)[C@H](O)[C@@H](O)[C@@H]1O` [VISARTISIDE B], in data set [1], the ED50 stood at 34.1 µM. In data set [2], the viability at 24 h, up to 20 µM amounted to 100%. For the same molecule, the pIC50 in the data set with RAW264.7 is 4.60.
For `O=C(/C=C/c1ccccc1)OC[C@@]1(O)CO[C@@H](O[C@@H]2[C@@H](O)[C@H](OCc3ccccc3)O[C@H](CO)[C@H]2O)[C@@H]1O` [VISARTISIDE E], the ED50 in data set [1] was over 100 µM. In addition, the viability at 24 h, up to 20 µM in data set [2] came out at 88.1%. Also, the pIC50 in the data set with RAW264.7 was 4.40.
In the same order, the values of `O=C1C[C@@H](c2ccc(O)cc2)Oc2cc(O[C@@H]3O[C@H](CO)[C@@H](O)[C@H](O)[C@H]3O)cc(O)c21` [PRUNIN] are over 100 µM, 100% and 4.37.
